From patent publication US20090036422A1 (priority 2007, published 2009)
Where a name gives a salt, the structure may show the parent alone.

Biological target: T1, human orexin-2 (hOX2) receptor (Homo sapiens, UniProt O43614)
T1 construct: expressed in transfected cells
T1 sequence (O43614 1-444): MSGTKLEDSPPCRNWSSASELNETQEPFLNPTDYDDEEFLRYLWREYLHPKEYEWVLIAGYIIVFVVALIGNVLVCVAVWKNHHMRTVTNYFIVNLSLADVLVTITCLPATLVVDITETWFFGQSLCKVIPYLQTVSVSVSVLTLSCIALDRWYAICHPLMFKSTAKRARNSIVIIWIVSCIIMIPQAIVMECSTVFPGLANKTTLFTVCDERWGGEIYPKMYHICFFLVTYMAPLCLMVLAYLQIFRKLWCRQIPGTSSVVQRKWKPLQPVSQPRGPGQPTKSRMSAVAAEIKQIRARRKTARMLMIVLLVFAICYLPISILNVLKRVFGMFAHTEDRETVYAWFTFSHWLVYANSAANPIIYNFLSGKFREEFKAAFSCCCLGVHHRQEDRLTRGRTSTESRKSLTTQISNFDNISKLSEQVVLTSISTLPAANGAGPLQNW
Test: Intracellular Ca2+ mobilization assay (FLIPR), CHO(dHFr-) cells expressing hOX2, orexin-A at EC80 as agonist
Assay type: cell-based
Details: Kb=IC50/(1+[A]/EC50); CHO(dHFr-)-OX2R cells, antagonist applied 25 min before orexin-A EC80
Summary of the method: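 Fluo-4-loaded CHO(dHFr−) cells stably expressing hOX2 were preincubated 25 min at 37 °C with antagonist (11 concentrations, 0.0001–10 μM), then challenged with orexin-A at its daily-determined EC80. Peak fluorescence over basal read by FLIPR; IC50 from Hill fit, Kb via Kb=IC50/(1+[A]/EC50).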

Row | Kb | Structure (SMILES)
1 | 0.0496 µM | Cc1ccc(N(CCc2cccc(Cl)c2)C(=O)[C@@H](N)c2ccccc2)cc1C [Example 183, (S)-2-Amino-N-[2-(3-chloro-phenyl)-ethyl]-N-(3,4-dimethyl-phenyl)-2-phenyl-acetamide hydrochloride]
2 | 0.0249 µM | Cc1ccc(N(CCc2cccc(C(F)(F)F)c2)C(=O)[C@@H](N)c2ccccc2)cc1C [Example 184, (S)-2-Amino-N-(3,4-dimethyl-phenyl)-2-phenyl-N-[2-(3-trifluoromethyl-phenyl)-ethyl]-acetamide hydrochloride]
3 | 0.0305 µM | Cc1ccc(N(CCc2ccccc2C)C(=O)[C@@H](N)c2ccccc2)cc1C [Example 185, (S)-2-Amino-N-(3,4-dimethyl-phenyl)-2-phenyl-N-(2-o-tolyl-ethyl)-acetamide hydrochloride]
4 | 0.0156 µM | Cc1ccc(N(CCc2ccc(C(F)(F)F)c(F)c2)C(=O)[C@@H](N)c2ccccc2)cc1C [Example 186, (S)-2-Amino-N-(3,4-dimethyl-phenyl)-N-[2-(3-fluoro-4-trifluoromethyl-phenyl)-ethyl]-2-phenyl-acetamide hydrochloride]
5 | 0.0327 µM | Cc1ccc(N(CCc2ccc(F)c(C(F)(F)F)c2)C(=O)[C@@H](N)c2ccccc2)cc1C [Example 187, (S)-2-Amino-N-(3,4-dimethyl-phenyl)-N-[2-(4-fluoro-3-trifluoromethyl-phenyl)-ethyl]-2-phenyl-acetamide hydrochloride]
6 | 0.0269 µM | Cc1ccc(N(CCc2ccc(F)cc2F)C(=O)[C@@H](N)c2ccccc2)cc1C [Example 188, (S)-2-Amino-N-[2-(2,4-difluoro-phenyl)-ethyl]-N-(3,4-dimethyl-phenyl)-2-phenyl-acetamide hydrochloride]
7 | 0.0071 µM | Cc1ccc(N(CCc2ccc(F)c(F)c2)C(=O)[C@@H](N)c2ccccc2)cc1C [Example 189, (S)-2-Amino-N-[2-(3,4-difluoro-phenyl)-ethyl]-N-(3,4-dimethyl-phenyl)-2-phenyl-acetamide hydrochloride]
8 | 0.0091 µM | Cc1ccc(N(CCc2ccc(C)c(F)c2)C(=O)[C@@H](N)c2ccccc2)cc1C [Example 190, (S)-2-Amino-N-(3,4-dimethyl-phenyl)-N-[2-(3-fluoro-4-methyl-phenyl)-ethyl]-2-phenyl-acetamide hydrochloride]
9 | 0.0215 µM | Cc1ccc(N(CCc2cccc(F)c2F)C(=O)[C@@H](N)c2ccccc2)cc1C [Example 191, (S)-2-Amino-N-[2-(2,3-difluoro-phenyl)-ethyl]-N-(3,4-dimethyl-phenyl)-2-phenyl-acetamide hydrochloride]
10 | 0.0148 µM | Cc1ccc(N(CCc2ccc(Cl)cc2F)C(=O)[C@@H](N)c2ccccc2)cc1C [Example 192, (S)-2-Amino-N-[2-(4-chloro-2-fluoro-phenyl)-ethyl]-N-(3,4-dimethyl-phenyl)-2-phenyl-acetamide; hydrochloride]
11 | 0.016 µM | Cc1ccc(N(CCc2cc(C(F)(F)F)ccc2F)C(=O)[C@@H](N)c2ccccc2)cc1C [Example 193, (S)-2-Amino-N-(3,4-dimethyl-phenyl)-N-[2-(2-fluoro-5-trifluoromethyl-phenyl)-ethyl]-2-phenyl-acetamide; hydrochloride]
12 | 0.0052 µM | COc1ccccc1CCN(C(=O)[C@@H](N)c1ccccc1)c1ccc(C)c(C)c1 [Example 194, (S)-2-Amino-N-(3,4-dimethyl-phenyl)-N-[2-(2-methoxy-phenyl)-ethyl]-2-phenyl-acetamide hydrochloride]
13 | 0.0176 µM | Cc1ccc(N(CCc2cccc(C(F)(F)F)c2F)C(=O)[C@@H](N)c2ccccc2)cc1C [Example 195, (S)-2-Amino-N-(3,4-dimethyl-phenyl)-N-[2-(2-fluoro-3-trifluoromethyl-phenyl)-ethyl]-2-phenyl-acetamide hydrochloride]
14 | 0.0171 µM | Cc1ccc(N(CCc2ccc(C(F)(F)F)cc2F)C(=O)[C@@H](N)c2ccccc2)cc1C [Example 196, (S)-2-Amino-N-(3,4-dimethyl-phenyl)-N-[2-(2-fluoro-4-trifluoromethyl-phenyl)-ethyl]-2-phenyl-acetamide hydrochloride]
15 | 0.0067 µM | Cc1ccc(N(CCc2ccc(C(F)(F)F)c(F)c2F)C(=O)[C@@H](N)c2ccccc2)cc1C [Example 197, (S)-2-Amino-N-[2-(2,3-difluoro-4-trifluoromethyl-phenyl)-ethyl]-N-(3,4-dimethyl-phenyl)-2-phenyl-acetamide hydrochloride]
16 | 0.0489 µM | Cc1ccc(N(CCc2ccccc2)C(=O)[C@@H](N)c2ccccc2)cc1C [Example 199, (S)-2-Amino-N-(3,4-dimethyl-phenyl)-N-phenethyl-2-phenyl-acetamide hydrochloride]

Row | Kb | Structure (SMILES)
17 | 0.0143 µM | Cc1ccc(N(CCc2ccc(Cl)c(F)c2)C(=O)[C@@H](N)c2ccccc2)cc1C [Example 200, (S)-2-Amino-N-[2-(4-chloro-3-fluoro-phenyl)-ethyl]-N-(3,4-dimethyl-phenyl)-2-phenyl-acetamide hydrochloride]
18 | 0.247 µM | Cc1ccc(N(CCc2cc(F)cc(C(F)(F)F)c2)C(=O)[C@@H](N)c2ccccc2)cc1C [Example 201, (S)-2-Amino-N-(3,4-dimethyl-phenyl)-N-[2-(3-fluoro-5-trifluoromethyl-phenyl)-ethyl]-2-phenyl-acetamide hydrochloride]
19 | 0.0015 µM | Cc1ccc(N(CCc2c(F)cc(C(F)(F)F)c(F)c2F)C(=O)[C@@H](N)c2ccccc2)cc1C [Example 202, (S)-2-Amino-N-(3,4-dimethyl-phenyl)-2-phenyl-N-[2-(2,3,6-trifluoro-4-trifluoromethyl-phenyl)-ethyl]-acetamide hydrochloride]
20 | 0.0996 µM | Cc1ccc(N(CCc2cc(Cl)ccc2Cl)C(=O)[C@@H](N)c2ccccc2)cc1C [Example 203, (S)-2-Amino-N-[2-(2,5-dichloro-phenyl)-ethyl]-N-(3,4-dimethyl-phenyl)-2-phenyl-acetamide hydrochloride]
21 | 0.0178 µM | Cc1ccc(N(CCc2cccc(Cl)c2F)C(=O)[C@@H](N)c2ccccc2)cc1C [Example 204, (S)-2-Amino-N-[2-(3-chloro-2-fluoro-phenyl)-ethyl]-N-(3,4-dimethyl-phenyl)-2-phenyl-acetamide hydrochloride]
22 | 0.0829 µM | Cc1ccc(N(CCc2ccc(Cl)cc2Cl)C(=O)[C@@H](N)c2ccccc2)cc1C [Example 205, (S)-2-Amino-N-[2-(2,4-dichloro-phenyl)-ethyl]-N-(3,4-dimethyl-phenyl)-2-phenyl-acetamide hydrochloride]
23 | 0.0469 µM | Cc1ccc(N(CCc2cccc(O)c2)C(=O)[C@@H](N)c2ccccc2)cc1C [Example 206, (S)-2-Amino-N-(3,4-dimethyl-phenyl)-N-[2-(3-hydroxy-phenyl)-ethyl]-2-phenyl-acetamide hydrochloride]
24 | 0.0231 µM | Cc1ccc(N(CCc2cc(F)cc(F)c2)C(=O)[C@@H](N)c2ccccc2)cc1C [Example 208, (S)-2-Amino-N-[2-(3,5-difluoro-phenyl)-ethyl]-N-(3,4-dimethyl-phenyl)-2-phenyl-acetamide hydrochloride]
25 | 0.0486 µM | Cc1ccc(N(CCc2cc(F)cc(Cl)c2)C(=O)[C@@H](N)c2ccccc2)cc1C [Example 209, (S)-2-Amino-N-[2-(3-chloro-5-fluoro-phenyl)-ethyl]-N-(3,4-dimethyl-phenyl)-2-phenyl-acetamide hydrochloride]
26 | 0.0077 µM | Cc1ccc(N(CCc2ccc(OC(F)F)cc2)C(=O)[C@@H](N)c2ccccc2)cc1C [Example 210, (S)-2-Amino-N-[2-(4-difluoromethoxy-phenyl)-ethyl]-N-(3,4-dimethyl-phenyl)-2-phenyl-acetamide hydrochloride]
27 | 0.0222 µM | Cc1ccc(N(CCc2c(F)cc(C(F)(F)F)c(F)c2F)C(=O)/C(=N/O)c2ccccc2)cc1C [Example 211, N-(3,4-Dimethyl-phenyl)-2-[hydroxyimino]-2-phenyl-N-[2-(2,3,6-trifluoro-4-trifluoromethyl-phenyl)-ethyl]-acetamide]
28 | 0.0343 µM | Cc1ccc(N(CCc2ccc(C#N)cc2)C(=O)[C@@H](N)c2ccccc2)cc1C [Example 212, (S)-2-Amino-N-[2-(4-cyano-phenyl)-ethyl]-N-(3,4-dimethyl-phenyl)-2-phenyl-acetamide hydrochloride]
29 | 0.0966 µM | Cc1ccc(N(CCc2ccc(F)c(F)c2)C(=O)C(N)c2ccc(Cl)s2)cc1C (centres unmarked) [Example 214, 2-Amino-2-(5-chloro-thiophen-2-yl)-N-[2-(3,4-difluoro-phenyl)-ethyl]-N-(3,4-dimethyl-phenyl)-acetamide hydrochloride]
30 | 0.0302 µM | Cc1ccc(N(CCc2ccc(F)c(F)c2)C(=O)C(N)c2ccsc2)cc1C (centres unmarked) [Example 216, 2-Amino-N-[2-(3,4-difluoro-phenyl)-ethyl]-N-(3,4-dimethyl-phenyl)-2-thiophen-3-yl-acetamide hydrochloride]
31 | 0.0555 µM | Cc1ccc(N(CCc2ccc(C(F)(F)F)cc2)C(=O)C(=O)c2ccccc2)cc1C [Example 218, N-(3,4-Dimethyl-phenyl)-2-oxo-2-phenyl-N-[2-(4-trifluoromethyl-phenyl)-ethyl]-acetamide]
32 | 0.076 µM | Cc1ccc(N(CCc2ccc(C(F)(F)F)cc2)C(=O)Cn2c(C)nc3ccccc32)cc1C [Example 236, N-(3,4-Dimethyl-phenyl)-2-(2-methyl-benzoimidazol-1-yl)-N-[2-(4-trifluoromethyl-phenyl)-ethyl]-acetamide]
